In one assay the test system is N2a-mLRP4 cells. In words: Co-localization of internalized FAM-Aβ42 with LysoTracker, confocal microscopy. The class given is cell-based, mouse. How it is done: To determine whether internalized Aβ42 is accumulated over time, we performed continuous feeding experiments of FAM-Aβ42 in N2a-pcDNA3 and N2a-mLRP4 cells. The steady-state levels and localization of Aβ42 were determined by flow cytometry and confocal microscopy, respectively (Fig. 2). Cells were incubated with 500 nM FAM-Aβ42 at 37°C for 24, 48 or 72 h and the content of fluorescence per cell was quantified by FACS and presented as a percentage of the levels in N2a-pcDNA3 at each time point (Fig. 2A). […] Therefore, we analyzed the subcellular localization of internalized FAM-Aβ42 by confocal microscopy in N2a cells treated as before and analyzed co-localization with lysosomes. For the visualization of acidic organelles, a brief incubation with LysoTracker Red at the end of the experiment was included (Fig. 2B). After 24 h of incubation, a small amount of cell-associated Aβ42 can be detected in N2a-mLRP4 cells.
Figure 2 Increased accumulation of intracellular Aβ42 within lysosomes in LRP1 minireceptor-expressing cells. A, increased Aβ42 accumulation in LRP1 minireceptor-expressing cells. N2a-mLRP4 and N2a-pcDNA3 cells were treated with 500 nM of FAM-Aβ42 at 37°C for 24, 48 and 72 h, and steady-state levels of intracellular Aβ42 were determined by flow cytometric analyses of pronase-treated cells as described in the Experimental Procedures. […] B, increased co-localization of intracellular Aβ42 and lysosomes in N2a-mLRP4 cells. N2a-pcDNA3 and N2a-mLRP4 cells were grown in glass chamber slides and treated with 500 nM of FAM-Aβ42 at 37°C for 24, 48 and 72 h. Lysosomes were labeled with LysoTracker 30 min before the end of each incubation. Cells were then fixed and analyzed by confocal microscopy.
For the imaging experiments, stable N2a cells were plated into an 8-well chambered coverglass at 16,250 cells/cm^2 with one independent chambered coverglass for each time point, and cells were grown overnight. […] Cells were then fixed and analyzed by a confocal laser scanning microscope (Fluoview 500, Olympus) using a 40x objective lens. […]

Another assay deals with N2a-pcDNA3 cells. Description: Binding/endocytosis of FAM-Aβ42, confocal microscopy. Conditions: 5 µM bound 1 h at 4°C, 37°C for 8 h. The class given is cell-based, mouse. From the text: To test whether the endocytic activity of LRP1 mediates the uptake of Aβ42 and its accumulation within neurons, we analyzed the uptake of fluorescently labeled Aβ42 in control N2a cells and in N2a cells that overexpress a LRP1 minireceptor, mLRP4. This minireceptor contains the fourth ligand-binding domain of LRP1 and is capable of binding several LRP1 ligands with endocytic properties identical to the full-length LRP1 [35]. We generated stable N2a-mLRP4 and N2a-pcDNA3 cell lines and characterized them for total mLRP4 expression levels by Western blot and FACS (Fig. 1). […] To determine if mLRP4 reached the plasma membrane after synthesis, we analyzed cell surface levels of mLRP4 by FACS in non-permeabilized cells. […] To quantify the amount of internalized RAP, we performed FACS analysis of similarly treated cultures. […] Cells were then warmed to 37°C for different periods of time to allow ligand internalization, and analyzed by confocal microscopy as described in the Experimental Procedures section. […]
Figure 1 LRP1 minireceptor increases the uptake of Aβ42 in N2a-mLRP4 cells. A, cell lysates from N2a cells stably expressing LRP1 minireceptor (N2a-mLRP4) or empty pcDNA3 vector (N2a-pcDNA3) were analyzed by 7.5% SDS-PAGE and Western blotted with anti-HA or anti-LRP1 antibodies. […]

For the substance “FAM-Aβ42: FAM-Aβ42 peptide (23526) from Anaspec; amyloid-β 42 with carboxyfluorescein at the N-terminal region”, the “co-localization of intracellular accumulated Aβ42 with LysoTracker” value with N2a-mLRP4 cells (500 nM FAM-Aβ42, 37°C, 24, 48 and 72 h, N2a-mLRP4, increased over time) is listed as “highly co-localized with LysoTracker”. The “localization of Aβ42 into LysoTracker-positive organelles” value with N2a-mLRP4 cells (500 nM FAM-Aβ42, 37°C, 48 and 72 h, both N2a-pcDNA3 and N2a-mLRP4 cells) is listed as “increased localization”. In addition, in the assay with N2a-mLRP4 cells (500 nM FAM-Aβ42, 37°C, 24 h, 100 nM LysoTracker Red last 30 min, N2a-mLRP4), the “localization of cell-associated FAM-Aβ42 into acidic organelles (LysoTracker)” value is reported as “does not localize into acidic organelles”. Also, the “Aβ42 accumulated after 8 h of warming” value in the assay on N2a-pcDNA3 cells is “small amount”.

Source of the values: paper PMC2912373, “Low-Density Lipoprotein Receptor-Related Protein 1 (LRP1) Mediates Neuronal Aβ42 Uptake and Lysosomal Trafficking” (PLoS ONE, 2010).
